Active and inactive are the calls of the source. No cut-off for these calls is given here.
Key:
[1] = target: T1, Ubiquitin carboxyl-terminal hydrolase 7 (Homo sapiens, UniProt Q93009); assay: Inhibition of recombinant full length USP7 (unknown origin) using ubiquintin-rhodamine as substrate preincubated for 30 mins followed by substrate addition measured after 1 hr by fluorescence-based Envision plate reader assay
[2] = target: T2, Ubiquitin carboxyl-terminal hydrolase 1 (Homo sapiens, UniProt O94782); assay: Inhibition of His6-tagged human USP1 expressed in insect Sf21 cells coexpressing untagged UAF1 assessed as cleavage of Ubiquitin-Rhodamine110-glycine to Ubiquitin and Rhodamine110-glycine using Ubiquitin-Rhodamine110-glycine as substrate by fluorescence based analysis
T2 sequence (O94782 whole entry): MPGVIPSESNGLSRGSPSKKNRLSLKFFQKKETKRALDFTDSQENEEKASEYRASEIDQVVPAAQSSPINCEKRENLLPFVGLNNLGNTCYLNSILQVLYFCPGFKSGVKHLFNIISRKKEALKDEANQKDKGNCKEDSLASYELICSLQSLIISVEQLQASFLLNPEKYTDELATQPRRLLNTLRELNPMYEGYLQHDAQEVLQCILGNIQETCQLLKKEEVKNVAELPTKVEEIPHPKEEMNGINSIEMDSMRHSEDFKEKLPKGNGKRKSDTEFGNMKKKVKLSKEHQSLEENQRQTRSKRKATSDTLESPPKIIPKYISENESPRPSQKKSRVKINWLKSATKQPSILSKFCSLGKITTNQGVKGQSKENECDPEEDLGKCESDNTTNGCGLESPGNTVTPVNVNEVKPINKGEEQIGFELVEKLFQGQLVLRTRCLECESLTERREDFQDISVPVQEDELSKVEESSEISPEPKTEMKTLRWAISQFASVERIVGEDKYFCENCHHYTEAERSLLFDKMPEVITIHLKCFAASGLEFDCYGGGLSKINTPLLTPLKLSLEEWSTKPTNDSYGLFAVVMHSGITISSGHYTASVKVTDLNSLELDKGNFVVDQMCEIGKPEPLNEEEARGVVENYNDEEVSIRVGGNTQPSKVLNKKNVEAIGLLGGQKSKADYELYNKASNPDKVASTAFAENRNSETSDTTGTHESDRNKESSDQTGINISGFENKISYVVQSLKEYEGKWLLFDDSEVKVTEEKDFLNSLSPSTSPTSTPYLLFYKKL

[3] = target: T3, Ubiquitin carboxyl-terminal hydrolase 47 (Homo sapiens, UniProt Q96K76); assay: Inhibition of USP47 (unknown origin) by biochemical assay
T3 sequence (Q96K76 whole entry): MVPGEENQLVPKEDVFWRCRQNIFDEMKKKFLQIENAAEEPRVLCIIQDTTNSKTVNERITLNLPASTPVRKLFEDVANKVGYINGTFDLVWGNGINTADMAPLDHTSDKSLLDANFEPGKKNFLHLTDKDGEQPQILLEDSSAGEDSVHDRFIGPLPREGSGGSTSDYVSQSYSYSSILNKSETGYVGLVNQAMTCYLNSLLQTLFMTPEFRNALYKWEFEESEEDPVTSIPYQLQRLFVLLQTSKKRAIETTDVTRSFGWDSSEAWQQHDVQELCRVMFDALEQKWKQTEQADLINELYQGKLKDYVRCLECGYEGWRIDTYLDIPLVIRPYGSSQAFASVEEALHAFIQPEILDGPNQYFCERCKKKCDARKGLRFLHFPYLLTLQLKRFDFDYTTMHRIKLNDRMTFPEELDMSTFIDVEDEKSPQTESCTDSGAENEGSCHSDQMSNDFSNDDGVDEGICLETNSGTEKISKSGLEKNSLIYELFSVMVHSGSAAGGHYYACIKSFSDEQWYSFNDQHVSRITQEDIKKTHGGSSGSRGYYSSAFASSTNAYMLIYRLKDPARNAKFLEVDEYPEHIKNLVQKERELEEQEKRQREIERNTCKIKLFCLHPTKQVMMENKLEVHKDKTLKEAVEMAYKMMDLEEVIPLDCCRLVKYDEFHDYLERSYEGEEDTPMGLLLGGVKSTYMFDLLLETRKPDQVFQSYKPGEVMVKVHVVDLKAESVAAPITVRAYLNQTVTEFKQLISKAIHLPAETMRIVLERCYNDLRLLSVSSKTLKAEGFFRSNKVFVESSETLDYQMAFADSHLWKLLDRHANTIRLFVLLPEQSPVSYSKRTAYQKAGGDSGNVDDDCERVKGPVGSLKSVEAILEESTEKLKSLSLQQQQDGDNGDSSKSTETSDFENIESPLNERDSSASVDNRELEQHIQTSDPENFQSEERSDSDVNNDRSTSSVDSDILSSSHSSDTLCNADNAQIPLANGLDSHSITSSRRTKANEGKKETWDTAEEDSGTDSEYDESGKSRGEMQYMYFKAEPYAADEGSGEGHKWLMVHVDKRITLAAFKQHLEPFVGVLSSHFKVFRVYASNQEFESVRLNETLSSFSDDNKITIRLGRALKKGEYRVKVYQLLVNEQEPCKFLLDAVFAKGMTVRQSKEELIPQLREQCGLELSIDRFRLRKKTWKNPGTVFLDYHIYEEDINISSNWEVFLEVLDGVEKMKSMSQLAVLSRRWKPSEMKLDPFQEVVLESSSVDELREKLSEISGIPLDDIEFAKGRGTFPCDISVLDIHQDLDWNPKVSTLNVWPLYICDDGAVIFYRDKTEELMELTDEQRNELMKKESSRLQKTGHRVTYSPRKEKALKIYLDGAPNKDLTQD

[4] = target: T4, Ubiquitin carboxyl-terminal hydrolase isozyme L3 (Homo sapiens, UniProt P15374); assay: Inhibition of human GST-tagged UCHL3 expressed in Escherichia coli assessed as cleavage of Ubiquitin-Rhodamine110-glycine to Ubiquitin and Rhodamine110-glycine using Ubiquitin-Rhodamine110-glycine as substrate by fluorescence based analysis
T4 sequence (P15374 whole entry): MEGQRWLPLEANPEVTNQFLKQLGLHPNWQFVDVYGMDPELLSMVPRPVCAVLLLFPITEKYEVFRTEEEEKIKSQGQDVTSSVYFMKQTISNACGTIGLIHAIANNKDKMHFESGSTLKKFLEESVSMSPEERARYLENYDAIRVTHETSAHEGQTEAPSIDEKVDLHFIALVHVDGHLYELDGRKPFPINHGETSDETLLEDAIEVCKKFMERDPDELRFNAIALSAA

MM1.S [5] = assay: Antitumor activity against human MM1S cells xenografted in NOD/SCID mouse assessed as tumor growth inhibition at 50 mg/kg, po administered twice daily and measured twice per week relative to control; format: functional; conditions: read-out: TGI
[6] = target: T1, Ubiquitin carboxyl-terminal hydrolase 7; assay: Inhibition of USP7 in human RKO cells transfected with p53 luciferase reporter vector assessed as increase in p53-dependent luciferase activity measured after 18 hrs by BrightGlo luciferase assay; format: cell-based
MM1.S [7] = assay: Cytotoxicity against human MM1S cells expressing wild type p53 assessed as reduction in cell viability measured after 5 days by CellTiter-Glo assay; format: functional; conditions: 120 h
NCI-H526 [8] = assay: Cytotoxicity against human NCI-H526 cells expressing p53 mutant assessed as reduction in cell viability measured after 5 days by CellTiter-Glo assay; format: functional; conditions: NCI-H526, 120 h
[9] = Cytotoxicity against human RKO cells assessed as reduction in cellular ATP level measured after 5 days by CellTiter-Glo assay; format: cell-based
[10] = target: Voltage-gated inwardly rectifying potassium channel KCNH2 (Homo sapiens, UniProt Q12809); assay: Inhibition of human ERG
[11] = AUC in BALB/c mouse at 30 mg/kg, po; format: ADME, organism-based; conditions: in vivo
[12] = AUC in NOD/SCID mouse at 30 mg/kg, po; format: ADME, organism-based; conditions: in vivo
[13] = AUC in nude mouse at 30 mg/kg, po; format: ADME, organism-based; conditions: in vivo
[14] = Protein binding in mouse plasma by ultracentrifugation method; format: ADME, cell-free; conditions: read-out: PPB (converted)
[15] = Toxicity in NOD/SCID mouse xenografted with human MM1S cells assessed as decrease in body weight at 50 mg/kg, po administered twice daily and measured twice per week relative to control; format: organism-based; set-up: scale not given: the % may be the effect or the level left; conditions: in vivo
NCI-H526 [16] = conditions: Homo sapiens
Description: Antitumor activity against human NCI-H526 cells xenografted in athymic nu/nu mouse assessed as tumor growth inhibition at 50 mg/kg, po administered twice daily for 24 days and measured twice per week

T1 sequence (Q93009 whole entry): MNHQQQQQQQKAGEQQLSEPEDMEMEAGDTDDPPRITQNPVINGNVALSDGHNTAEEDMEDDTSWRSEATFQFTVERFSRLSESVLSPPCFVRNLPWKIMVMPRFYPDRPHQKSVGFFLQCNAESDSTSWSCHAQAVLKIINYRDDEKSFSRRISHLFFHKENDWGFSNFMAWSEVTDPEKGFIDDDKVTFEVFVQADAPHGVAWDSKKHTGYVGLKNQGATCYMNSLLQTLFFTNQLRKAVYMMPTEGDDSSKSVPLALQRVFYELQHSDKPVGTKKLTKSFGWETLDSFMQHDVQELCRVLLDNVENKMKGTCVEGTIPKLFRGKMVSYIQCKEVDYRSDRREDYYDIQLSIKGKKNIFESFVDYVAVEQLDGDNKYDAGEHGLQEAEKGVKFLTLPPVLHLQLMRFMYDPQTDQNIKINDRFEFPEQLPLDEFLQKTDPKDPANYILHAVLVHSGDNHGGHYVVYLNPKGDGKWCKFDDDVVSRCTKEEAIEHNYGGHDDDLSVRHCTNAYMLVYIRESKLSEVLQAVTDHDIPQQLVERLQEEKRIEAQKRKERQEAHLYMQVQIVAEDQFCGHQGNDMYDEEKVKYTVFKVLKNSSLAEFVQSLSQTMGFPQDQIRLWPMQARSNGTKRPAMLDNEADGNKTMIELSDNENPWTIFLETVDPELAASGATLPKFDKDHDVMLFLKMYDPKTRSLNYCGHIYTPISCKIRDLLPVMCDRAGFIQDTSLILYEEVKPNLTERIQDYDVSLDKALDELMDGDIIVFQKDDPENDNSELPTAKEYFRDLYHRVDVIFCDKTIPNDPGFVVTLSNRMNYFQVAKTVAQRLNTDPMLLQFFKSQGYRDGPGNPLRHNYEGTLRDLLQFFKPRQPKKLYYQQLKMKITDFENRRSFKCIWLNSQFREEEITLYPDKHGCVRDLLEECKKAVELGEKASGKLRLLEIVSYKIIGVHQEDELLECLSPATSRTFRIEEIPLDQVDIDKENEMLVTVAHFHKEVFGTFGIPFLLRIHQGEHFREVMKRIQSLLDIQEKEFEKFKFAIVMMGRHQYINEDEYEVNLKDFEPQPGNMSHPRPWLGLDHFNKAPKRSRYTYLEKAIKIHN
Chain of Voltage-gated inwardly rectifying potassium channel KCNH2 (Q12809 whole entry): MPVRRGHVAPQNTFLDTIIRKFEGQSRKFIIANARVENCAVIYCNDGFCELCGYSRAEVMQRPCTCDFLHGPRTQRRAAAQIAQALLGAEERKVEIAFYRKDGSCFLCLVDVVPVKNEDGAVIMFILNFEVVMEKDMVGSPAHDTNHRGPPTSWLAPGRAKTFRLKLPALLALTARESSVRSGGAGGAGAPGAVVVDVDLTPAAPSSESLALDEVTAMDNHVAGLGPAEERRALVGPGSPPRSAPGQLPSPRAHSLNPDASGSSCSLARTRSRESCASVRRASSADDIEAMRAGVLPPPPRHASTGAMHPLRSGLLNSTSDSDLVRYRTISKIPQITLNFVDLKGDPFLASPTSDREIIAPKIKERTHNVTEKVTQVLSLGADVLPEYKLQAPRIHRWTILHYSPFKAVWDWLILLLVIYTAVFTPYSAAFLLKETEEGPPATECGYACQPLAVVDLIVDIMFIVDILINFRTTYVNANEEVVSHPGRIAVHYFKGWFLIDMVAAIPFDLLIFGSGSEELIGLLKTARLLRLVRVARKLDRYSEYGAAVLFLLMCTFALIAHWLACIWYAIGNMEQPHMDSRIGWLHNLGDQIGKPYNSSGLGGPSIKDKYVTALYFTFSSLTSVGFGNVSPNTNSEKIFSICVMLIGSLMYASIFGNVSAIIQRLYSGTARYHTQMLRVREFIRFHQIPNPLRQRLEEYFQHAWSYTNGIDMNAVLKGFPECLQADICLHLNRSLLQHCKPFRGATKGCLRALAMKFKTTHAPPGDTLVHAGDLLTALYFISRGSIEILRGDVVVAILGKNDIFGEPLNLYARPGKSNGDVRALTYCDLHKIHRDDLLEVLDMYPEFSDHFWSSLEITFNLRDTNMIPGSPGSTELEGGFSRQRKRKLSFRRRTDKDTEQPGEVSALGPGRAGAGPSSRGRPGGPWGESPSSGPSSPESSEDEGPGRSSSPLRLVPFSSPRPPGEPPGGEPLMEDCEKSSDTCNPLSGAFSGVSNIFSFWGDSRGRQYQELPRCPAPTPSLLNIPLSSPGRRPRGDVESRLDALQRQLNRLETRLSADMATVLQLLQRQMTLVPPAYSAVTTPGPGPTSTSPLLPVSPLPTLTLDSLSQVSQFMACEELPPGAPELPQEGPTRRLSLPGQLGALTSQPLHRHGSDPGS

IC50 [1] [µM] | IC50 [2] [µM] | IC50 [3] [µM] | IC50 [4] [µM] | EC50 [6] [µM] | AUC [11] [ng·h/mL] | AUC [12] [ng·h/mL] | AUC [13] [ng·h/mL] | fraction unbound [14] | SMILES | inhibition in vivo at 50 mg/kg (MM1.S [5]) [%] | CC50 (MM1.S [7]) [µM] | CC50 (NCI-H526 [8]) [µM] | CC50 at 120 h [9] [µM] | IC50 [10] [µM] | Activity [15] [%] | TGI (NCI-H526 [16])
5.6 | > 80 | > 80 | > 80 | – | – | – | – | – | Nc1cc(-c2cc(Cl)cc3c2OC(C(=O)N2CCNCC2)C3)ccn1 (racemic) | – | – | – | – | – | – | –
– | > 80 | > 80 | > 80 | – | – | – | – | – | CC(Cc1ccccc1)C(=O)N1CCC(O)(Cn2cnc3ccccc3c2=O)CC1 (stereo not given) | – | – | – | – | – | – | –
0.00044 | – | – | – | 0.025 | 9400 | 5500 | 4600 | 0.047 | Cc1cc(Cl)cc(-c2ccnc3cc(CN4C(=O)C5C(C4=O)C5(C)C)sc23)c1C[C@@H]1CNCCO1 (stereo not given in full) | 100 | 0.089 | 0.45 | 13 | 4.2 | < 90 | Active

Reference: ChEMBL document CHEMBL4602719, “Discovery of Potent, Selective, and Orally Bioavailable Inhibitors of USP7 with In Vivo Antitumor Activity” (J Med Chem, 2020)
